Holding throughout (type): cell-based
Assay [1] addresses T1, alpha2A receptor (Homo sapiens, UniProt P08913).
T1 construct: expressed in transfected cells; host or cells: NIH-3T3 cells
T1 sequence (P08913 1-465): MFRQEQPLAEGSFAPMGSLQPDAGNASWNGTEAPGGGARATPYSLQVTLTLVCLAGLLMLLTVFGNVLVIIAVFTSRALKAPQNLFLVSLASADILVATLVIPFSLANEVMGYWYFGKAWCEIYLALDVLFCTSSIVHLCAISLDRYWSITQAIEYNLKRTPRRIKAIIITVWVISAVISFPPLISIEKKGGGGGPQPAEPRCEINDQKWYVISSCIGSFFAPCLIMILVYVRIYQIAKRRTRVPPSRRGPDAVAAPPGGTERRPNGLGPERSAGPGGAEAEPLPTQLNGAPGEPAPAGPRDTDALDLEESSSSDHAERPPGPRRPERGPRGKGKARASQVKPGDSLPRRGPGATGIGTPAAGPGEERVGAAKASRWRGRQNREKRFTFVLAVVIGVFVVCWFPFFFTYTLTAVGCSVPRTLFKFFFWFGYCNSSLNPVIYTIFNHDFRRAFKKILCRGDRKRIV
Nature of the assay: Receptor Selection and Amplification Technology (RSAT) assay, alpha2A. As to the method:
(§1) The RSAT assay measures a receptor-mediated loss of contact inhibition that results in selective proliferation of receptor-containing cells in a mixed population of confluent cells. The increase in cell number is assessed with an appropriate transfected marker gene such as […]-galactosidase, the activity of which can be easily measured in a 96-well format. Receptors that activate the G protein, Gq, elicit this response. Alpha2 receptors, which normally couple to Gi, activate the RSAT response when coexpressed with a hybrid Gq protein that has a Gi receptor recognition domain, called Gq/i5.
(§2) NIH-3T3 cells are plated at a density of 2×10^6 cells in 15 cm dishes and maintained in Dulbecco's modified Eagle's medium supplemented with 10% calf serum. One day later, cells are cotransfected by calcium phosphate precipitation with mammalian expression plasmids encoding p-SV-[…]-galactosidase (5-10 μg), receptor (1-2 μg) and G protein (1-2 μg). 40 μg salmon sperm DNA may also be included in the transfection mixture. Fresh media is added on the following day and 1-2 days later, cells are harvested and frozen in 50 assay aliquots. Cells are thawed and 100 μl added to 100 μl aliquots of various concentrations of drugs in triplicate in 96-well dishes. Incubations continue 72-96 hr at 37° C. After washing with phosphate-buffered saline, […]-galactosidase enzyme activity is determined by adding 200 μl of the chromogenic substrate (consisting of 3.5 mM o-nitrophenyl-[…]-D-galactopyranoside and 0.5% nonidet P-40 in phosphate buffered saline), incubating overnight at 30° C. and measuring optical density at 420 nm. The absorbance is a measure of enzyme activity, which depends on cell number and reflects a receptor-mediated cell proliferation. The efficacy or intrinsic activity is calculated as a ratio of the maximal effect of the drug to the maximal effect of a standard full agonist for each receptor subtype. Brimonidine, also called UK14304, the chemical structure of which is shown below, is used as the standard agonist for the alpha2A, alpha2B and alpha2C receptors. The EC50 is the concentration at which the drug effect is half of its maximal effect.
(§3) The results of the RSAT assay with several exemplary compounds of the invention are disclosed in Table 1 above together with the chemical formulas of these exemplary compounds. EC50 values are nanomolar. NA stands for “not active” at concentrations less than 10 micromolar. IA stands for “intrinsic activity.”

Assay [2] deals with T2, alpha2C receptor (Homo sapiens, UniProt P18825).
T2 construct: expressed in transfected cells; host or cells: NIH-3T3 cells
T2 sequence (P18825 1-462): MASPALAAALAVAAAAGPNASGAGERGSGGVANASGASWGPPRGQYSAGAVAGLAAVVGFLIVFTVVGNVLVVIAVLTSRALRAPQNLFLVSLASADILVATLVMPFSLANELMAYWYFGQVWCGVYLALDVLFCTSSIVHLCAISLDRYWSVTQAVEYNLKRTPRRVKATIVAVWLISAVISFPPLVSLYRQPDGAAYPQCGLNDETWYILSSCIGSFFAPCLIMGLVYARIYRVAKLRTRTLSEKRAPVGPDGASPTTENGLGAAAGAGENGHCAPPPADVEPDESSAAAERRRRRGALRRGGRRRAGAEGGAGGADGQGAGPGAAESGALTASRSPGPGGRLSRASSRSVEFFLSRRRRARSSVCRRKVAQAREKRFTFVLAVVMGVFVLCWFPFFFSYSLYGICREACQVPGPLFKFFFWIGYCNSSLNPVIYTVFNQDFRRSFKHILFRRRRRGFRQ
Nature of the assay: Receptor Selection and Amplification Technology (RSAT) assay, alpha2C. As to the method: as §1, §2, §3

In assay [3] the target is T3, alpha2B receptor (Homo sapiens, UniProt P18089).
T3 construct: expressed in transfected cells; host or cells: NIH-3T3 cells
T3 sequence (P18089 1-450): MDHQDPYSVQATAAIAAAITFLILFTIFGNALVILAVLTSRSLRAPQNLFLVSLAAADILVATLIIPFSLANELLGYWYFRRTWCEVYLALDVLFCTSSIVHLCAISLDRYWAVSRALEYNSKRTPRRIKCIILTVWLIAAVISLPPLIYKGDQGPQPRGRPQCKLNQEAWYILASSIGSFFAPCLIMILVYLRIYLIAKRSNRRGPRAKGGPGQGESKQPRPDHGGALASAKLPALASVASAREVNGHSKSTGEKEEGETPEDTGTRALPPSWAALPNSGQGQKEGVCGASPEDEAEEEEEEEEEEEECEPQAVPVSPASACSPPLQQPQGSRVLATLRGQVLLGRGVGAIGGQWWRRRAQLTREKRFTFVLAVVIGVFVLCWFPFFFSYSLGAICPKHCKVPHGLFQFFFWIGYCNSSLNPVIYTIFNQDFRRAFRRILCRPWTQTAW
Nature of the assay: Receptor Selection and Amplification Technology (RSAT) assay, alpha2B. How it is done:
as §1, §2, §3

The mark [4] stands for this setting: ratio of maximal effect of drug to maximal effect of standard full agonist brimonidine (UK14304).

pEC50: −log10 of the molar value.

In the case of `Cc1cccc2c1CC[C@@H]2N/C(=N\C#N)NCCF`, the pEC50 (in general, the negative decadic logarithm of the EC50, by convention in mol/L) in assay [1] (RSAT, transfected NIH-3T3 cells with Gq/i5, not active = not active at concentrations less than 10 micromolar, read-out: Alpha 2A EC50) was 6.12; in assay [2] (RSAT, transfected NIH-3T3 cells with Gq/i5, not active = not active at concentrations less than 10 micromolar, read-out: Alpha 2C EC50) it was 5.82; in assay [3] (RSAT, transfected NIH-3T3 cells with Gq/i5, not active = not active at concentrations less than 10 micromolar, read-out: Alpha 2B EC50), 7.22. In addition, the “Alpha 2A IA (intrinsic activity)” value in assay [1] (setting [4]) is recorded as 0.35. Moreover, the “Alpha 2C IA (intrinsic activity)” value in assay [2] (setting [4]) amounted to 0.46. Moreover, in assay [3] (setting [4]), the “Alpha 2B IA (intrinsic activity)” value stood at 1.09.

For the origin of these results see patent US7884244B2, “Therapeutic fluoroethylcyano guanidines” (Allergan, Inc., priority 2007, dated 2011).
